Tested on: T1, monoclonal anti-benzoylecgonine/cocaine (BEC) antibody IP3G2
T1 construct: monoclonal antibody, clone IP3G2, mouse, subtype IgG1
Assay: indirect competitive ELISA with chemiluminescence detection against BEC-BSA; also competitive immunofluorometric biosensor with Dy-654-labelled antibody
Type: binding, Mus musculus

Compound COC(=O)[C@H]1[C@@H](OC(=O)c2ccccc2)C[C@@H]2CC[C@H]1N2C [cocaine] has an IC50 of about 0.75 nM.

Source: PMC8466613, “Cocaine Detection by a Laser-Induced Immunofluorometric Biosensor” (Biosensors, 2021)
